We go through 2 molecules from patent US20200190073A1, “SUBSTITUTED SUCCINIMIDE DERIVATIVES AS PESTICIDES” (BASF SE, priority 2017, published 2020).

Type in all cases: in vivo
The subject of test [1] is Southern Armyworm (Spodoptera eridania), 2nd Instar Larvae. As to the kind of experiment: CE.7 Southern armyworm, 2nd instar larvae, comparative test. The note with it: foliar, 96 h, leaf dip, at 4 days, read-out: % mortality in comparison to untreated controls. The procedure:
(§1) The tables show % mortality in comparison to untreated controls.
CE.7 Southern Armyworm (Spodoptera eridania), 2nd Instar Larvae
The active compounds were formulated in 50:50 acetone:water (vol) and 100 ppm Kinetica™ surfactant.
A pair of first true leaves of Sieva lima bean was dipped into the test solution and allowed to dry. The leaves were then placed in a plastic perforated zip enclosure bag and ten 2nd instar larvae were added. At 4 days, observations were made of mortality and reduced feeding.

Test [2] has as its system Rice Green Leafhopper (Nephotettix virescens). In words: CE.5 Rice green leafhopper, comparative test. The note with it: 72 h, read-out: % mortality in comparison to untreated controls.
Test [3] has as its system Diamond back moth (Plutella xylostella). In words: CE.6 Diamond back moth, contact activity, comparative test. The note with it: read-out: % mortality in comparison to untreated controls. Here is the method: as §1
CE.6 Diamond Back Moth (Plutella xylostella)
Ten third-instar larvae are sprayed with 1 ml test solution and introduce to untreated leaves held petri dished lined with moist filter paper. Mortality is recorded 24, 72, and 120 hours after treatment.

For test [4], the system named is Silverleaf Whitefly (Bemisia argentifolii). As to the kind of experiment: CE.4 Silverleaf whitefly, comparative test. The note with it: 72 h, read-out: % mortality in comparison to untreated controls. The procedure: as §1
CE.4 Silverleaf Whitefly (Bemisia argentifolii)
The active compounds were formulated in 50:50 acetone:water (vol:vol) and 100 ppm Kinetica™ surfactant.
Selected cotton plants were grown to the cotyledon state (one plant per pot). The cotyledons were dipped into the test solution to provide complete coverage of the foliage and placed in a well-vented area to dry. Each pot with treated seedling was placed in a plastic cup and 10 to 12 whitefly adults (approximately 3-5 day old) were introduced. The insects were collected using an aspirator and a Tygon® tubing connected to a barrier pipette tip. The tip, containing the collected insects, was then gently inserted into the soil containing the treated plant, allowing insects to crawl out of the tip to reach the foliage for feeding. The cups were covered with a reusable screened lid. Test plants were maintained in the holding room at about 25° C. and about 20-40% relative humidity for 3 days avoiding direct exposure to the fluorescent light (24 hour photoperiod) to prevent trapping of heat inside the cup. Mortality was assessed 3 days after treatment of the plants.

The subject of test [5] is Tobacco Budworm (Heliothis virescens). As to the kind of experiment: B.4 Tobacco budworm, insect diet with eggs. As to conditions: 120 h, 2500 ppm, egg and larval mortality, 5 days, read-out: mortality in comparison with untreated controls. Here is the method: B.4 Tobacco Budworm (Heliothis virescens)
For evaluating control of tobacco budworm (Heliothis virescens) the test unit consisted of 96-well-microtiter plates containing an insect diet and 15-25 H. virescens eggs.
The compounds were formulated using a solution containing 75% v/v water and 25% v/v DMSO. Different concentrations of formulated compounds were sprayed onto the insect diet at 10 μl, using a custom built micro atomizer, at two replications.
After application, microtiter plates were incubated at about 28±1° C. and about 80±5% relative humidity for 5 days. Egg and larval mortality was then visually assessed.

The test system of test [6] is Boll Weevil (Anthonomus grandis). In words: B.5 Boll weevil, insect diet with eggs. The note with it: 120 h, 2500 ppm, egg and larval mortality, 5 days, read-out: mortality in comparison with untreated controls. The procedure:
B.5 Boll Weevil (Anthonomus grandis)
For evaluating control of boll weevil (Anthonomus grandis) the test unit consisted of 96-well-microtiter plates containing an insect diet and 5-10 A. grandis eggs.
The compounds were formulated using a solution containing 75% v/v water and 25% v/v DMSO. Different concentrations of formulated compounds were sprayed onto the insect diet at 5 μl, using a custom built micro atomizer, at two replications.
After application, microtiter plates were incubated at about 25±1° C. and about 75±5% relative humidity for 5 days. Egg and larval mortality was then visually assessed.

In test [7] the test system is Rice Green Leafhopper (Nephotettix virescens). As to the kind of experiment: B.8 Rice green leafhopper, sprayed rice seedlings. As to conditions: 300 ppm, adults on sprayed rice seedlings, after 72 hours, read-out: mortality in comparison with untreated controls. The procedure:
B.8 Rice Green Leafhopper (Nephotettix virescens)
Rice seedlings were cleaned and washed 24 hours before spraying. The active compounds were formulated in 1:1 acetone:water (vol:vol), and 0.01% vol/vol surfactant (Kinetic HV) was added. Potted rice seedlings were sprayed with 5-6 ml test solution, air dried, covered with Mylar cages and inoculated with 10 adults. Treated rice plants were kept at about 28-29° C. and relative humidity of about 50-60%. Percent mortality was recorded after 72 hours.

The test system of test [8] is Orchid Thrips (Dichromothrips Corbetti). In words: B.7 Orchid thrips, floral immersion. The note with it: 300 ppm; adult thrips; 72 hours after treatment; read-out: mortality in comparison with untreated controls. The procedure: B.7 Orchid Thrips (Dichromothrips Corbetti)
Dichromothrips corbetti adults used for bioassay were obtained from a colony maintained continuously under laboratory conditions. For testing purposes, the test compound is diluted in a 1:1 mixture of acetone:water (vol:vol), plus Kinetic HV at a rate of 0.01% v/v.
Thrips potency of each compound was evaluated by using a floral-immersion technique. All petals of individual, intact orchid flowers were dipped into treatment solution and allowed to dry in Petri dishes. Treated petals were placed into individual re-sealable plastic along with about 20 adult thrips. All test arenas were held under continuous light and a temperature of about 28° C. for duration of the assay. After 3 days, the numbers of live thrips were counted on each petal. The percent mortality was recorded 72 hours after treatment.

For test [9], the system named is Neotropical Brown Stink Bug (Euschistus heros). In words: B.12 Neotropical brown stink bug, dipped pole bean. As to conditions: 120 h, 500 ppm, adults, 5 days, read-out: mortality in comparison with untreated controls. The procedure: B.12 Neotropical Brown Stink Bug (Euschistus heros)
For evaluating control of Euschistus heros through contact the test unit consisted of 100 ml disposable plastic beakers with transparent lids.
The compounds were formulated using a solution containing 50% water and 50% acetone. 50 ml of different concentrations of formulated compounds or mixtures were prepared in a glass petri dish and used for dipping three 6 cm sections of fresh pole bean. Each treatment was replicated eight times.
After application, the pole bean sections were air-dried and 5 adult E. heros placed in each beaker. The E. heros were then allowed to suck on the treated pole bean sections and incubated at 23±1° C., 50±5% RH for 5 days. E. heros mortality was then visually assessed.

Test [10] has as its system Red Spider Mite (Tetranychus kanzawai). In words: B.9 Red spider mite, sprayed cowpea beans. The note with it: 300 ppm, 72 hours after treatment, read-out: mortality in comparison with untreated controls. The procedure: B.9 Red Spider Mite (Tetranychus kanzawai)
The active compound was dissolved at the desired concentration in a mixture of 1:1 (vol:vol) distilled water:acetone. Add surfactant (Kinetic HV) was added at a rate of 0.01% (vol/vol).The test solution was prepared at the day of use.
Potted cowpea beans of 4-5 days of age were cleaned with tap water and sprayed with 1-2 ml of the test solution using air driven hand atomizer. The treated plants were allowed to air dry and afterwards inoculated with 30 or more mites by clipping a cassava leaf section from rearing population. Treated plants were placed inside a holding room at about 25-27° C. and about 50-60% relative humidity. Percent mortality was assessed 72 hours after treatment.

Test [11] deals with Diamond back moth (Plutella xylostella). In words: B.1 Diamond back moth, cabbage leaf dip. The note with it: foliar, 300 ppm, cabbage leaf dip, 3rd instar larvae, 72 hours after treatment, read-out: mortality in comparison with untreated controls. Here is the method:
B.1 Diamond back moth (Plutella xylostella)
(§2) The active compound was dissolved at the desired concentration in a mixture of 1:1 (vol:vol) distilled water:acetone. Surfactant (Kinetic HV) was added at a rate of 0.01% (vol/vol). The test solution was prepared at the day of use.
Leaves of cabbage were dipped in test solution and air-dried. Treated leaves were placed in petri dishes lined with moist filter paper and inoculated with ten 3rd instar larvae. Mortality was recorded 72 hours after treatment. Feeding damages were also recorded using a scale of 0-100%.

Test [12] concerns Brown Marmorated Stink Bug (Halyomorpha halys). As to the kind of experiment: B.13 Brown marmorated stink bug, spray. The note with it: 120 h, 100 ppm, adults, after 5 days, read-out: mortality in comparison with untreated controls. Here is the method: B.13 Brown Marmorated Stink Bug (Halyomorpha halys)
as §2
Row peanuts and soybean seeds were placed into microwavable plastic cups and inoculated with five adult stage H. halys. Using a hand atomizer, approximately 1 ml solution is sprayed into each cup, insects and food present. A water source was provided (cotton wick with water) Each treatment is replicated 4-fold. Assay arenas are kept at about 25° C. Percent mortality was recorded after 5 days.

In test [13] the test system is Green Peach Aphid (Myzus persicae). As to the kind of experiment: B.2 Green peach aphid, artificial diet, systemic. As to conditions: 72 h, 2500 ppm, adult aphids on treated diet, 3 days, read-out: mortality in comparison with untreated controls. From the text: B.2 Green Peach Aphid (Myzus persicae)
For evaluating control of green peach aphid (Myzus persicae) through systemic means the test unit consisted of 96-well-microtiter plates containing liquid artificial diet under an artificial mem brane.
The compounds were formulated using a solution containing 75% v/v water and 25% v/v DMSO. Different concentrations of formulated compounds were pipetted into the aphid diet, using a custom built pipetter, at two replications.
After application, 5-8 adult aphids were placed on the artificial membrane inside the microtiter plate wells. The aphids were then allowed to suck on the treated aphid diet and incubated at about 23±1° C. and about 50±5% relative humidity for 3 days. Aphid mortality and fecundity was then visually assessed.

The test system of test [14] is Vetch Aphid (Megoura viciae). As to the kind of experiment: B.3 Vetch aphid, broad bean leaf disks. The note with it: foliar, 120 h, 2500 ppm, sprayed leaf disks, 5 days, read-out: mortality in comparison with untreated controls. Here is the method: B.3 Vetch Aphid (Megoura viciae)
For evaluating control of vetch aphid (Megoura viciae) through contact or systemic means the test unit consisted of 24-well-microtiter plates containing broad bean leaf disks.
The compounds were formulated using a solution containing 75% v/v water and 25% v/v DMSO. Different concentrations of formulated compounds were sprayed onto the leaf disks at 2.5 μl, using a custom built micro atomizer, at two replications.
After application, the leaf disks were air-dried and 5-8 adult aphids placed on the leaf disks inside the microtiter plate wells. The aphids were then allowed to suck on the treated leaf disks and incubated at about 23±1° C. and about 50±5% relative humidity for 5 days. Aphid mortality and fecundity was then visually assessed.

The test system of test [15] is Green Soldier Stink Bug (Nezara viridula). As to the kind of experiment: B.11 Green soldier stink bug, sprayed soybean pods. The note with it: 120 h, 300 ppm, late 3rd instar, after 5 days, read-out: mortality in comparison with untreated controls. The procedure: B.11 Green Soldier Stink Bug (Nezara viridula)
The active compound was dissolved at the desired concentration in a mixture of 1:1 (vol:vol) distilled water:acetone. Surfactant (Kinetic HV) was added at a rate of 0.01% (vol/vol). The test solution was prepared at the day of use. Soybean pods were placed in glass Petri dishes lined with moist filter paper and inoculated with ten late 3rd instar N. viridula. Using a hand atomizer, approximately 2 ml solution is sprayed into each Petri dish. Assay arenas were kept at about 25° C. Percent mortality was recorded after 5 days.

Read-outs that look alike come from different tables or passages of the source.

Take `O=C(NC1CCN(CC(F)(F)F)C1=O)c1ccc(C2=NOC(c3cc(Cl)c(F)c(Cl)c3)(C(F)(F)F)C2)c2c1CCC2` (stereo not shown) [Tab. 128, A-9 of WO 2015128358, reference compound]: the mortality at 3 ppm in test [1] and in test [2] was 0% throughout. For the same molecule, in [3], the mortality at 0.1 ppm turned out to be 0%. The mortality at 10 ppm in test [4] was 50%.

With `CN1C(=O)CC(NC(=O)c2ccc(C3=NOC(c4ccc(F)c(Cl)c4)(C(F)(F)F)C3)c3c2CCC3)C1=O` (stereo not shown) [Compound I-1-11], the mortality at 2500 ppm in test [5], in test [6], in test [13] and in [14] was greater than 75% in each case. Also, the mortality at 300 ppm in [7], in test [8], in [10], in [11] and in [15] was greater than 75% in each case. For the same molecule, the mortality at 500 ppm in test [9] is greater than 75%. The mortality at 0.1 ppm in test [3] (0.1 ppm, contact activity, third-instar larvae sprayed) came out at 75%. The mortality at 100 ppm in test [12] was greater than 75%.

By mortality is commonly meant the percentage killed.
